Measurements published in patent US8440637B2, “Combination treatment for the treatment of hepatitis C virus infection” (priority 2007, dated 2013).
l = locked nucleic acid (LNA); d = 2'-deoxy (DNA)

Assays:
[1] = mouse, in vivo
Description: (§1) C57BL/6J female mice were fed on high fat diet for 13 weeks before the initiation of the SEQ ID NO: 63 treatment. […] Both hypercholesterolemic and normal mice were treated i.p. twice weekly with 5 mg/kg SEQ ID NO: 63 and the corresponding mismatch control for a study period of 5½ weeks. Blood samples were collected weekly and total plasma cholesterol was measured during the entire course of the study. Upon sacrificing the mice, liver and blood samples were prepared for total RNA extraction, miRNA and mRNA quantification, assessment of the serum transaminase levels, and liver histology.
Serum from each individual mouse was prepared as follows: Blood samples were stored at room temperature for 2 h before centrifugation (10 min, 3000 rpm at room temperature). After centrifugation, serum was harvested and frozen at −20° C.
ALT and AST measurement was performed in 96-well plates using ALT and AST reagents from ABX Pentra according to the manufacturer's instructions. In short, serum samples were diluted 2.5 fold with H2O and each sample was assayed in duplicate. After addition of 50 μl diluted sample or standard (multical from ABX Pentra) to each well, 200 μl of 37° C. AST or ALT reagent mix was added to each well. Kinetic measurements were performed for 5 min with an interval of 30 s at 340 nm and 37° C. using a spectrophotometer.

miR-122a = miR-122a level in transfected Huh-7 cells by miR-122a specific qRT-PCR; format: cell-based, human; details: transfected at 1 and 100 nM, 24 hours after transfection
Description: The miR-122a expressing cell line Huh-7 was transfected with LNA anti-miR5 at 1 and 100 nM concentrations according to optimized lipofectamine 2000 (LF2000, Invitrogen) protocol (as follows).
Huh-7 cells were cultivated in Eagles MEM with 10% FBS, 2 mM Glutamax I, 1× non-essential amino acids, Gentamicin 25 μg/ml. The cells were seeded in 6-well plates (300000 cells per well), in a total vol. of 2.5 ml the day before transfection. At the day of transfection a solution containing LF2000 diluted in Optimem (Invitrogen) was prepared (1.2 ml optimem+3.75 μl LF2000 per well, final 2.5 μg LF2000/ml, final tot vol 1.5 ml).
LNA Oligonucleotides (LNA anti-miRs) were also diluted in optimem. 285 μl optimem+15 μl LNA oligonucleotide (10 μM oligonucleotide stock for final concentration 100 nM and 0.1 μM for final concentration 1 nM) Cells were washed once in optimem then the 1.2 ml optimem/LF2000 mix were added to each well. Cells were incubated 7 min at room temperature in the LF2000 mix where after the 300 μl oligonucleotide optimem solution was added. […]
miR-122a levels in the RNA samples were assessed on an ABI 7500 Fast real-time PCR instrument (Applied Biosystems, USA) using a miR-122a specific qRT-PCR kit, mirVana (Ambion, USA) and miR-122a primers (Ambion, USA). […]

miR-122 [2] = experiment: Total plasma cholesterol in hypercholesterolemic and normal mice, long-term treatment; format: in vivo, mouse; details: 5 mg/kg i.p. twice weekly
Description: as §1
C57BL/6J female mice (Taconic M&B Laboratory Animals, Ejby, Denmark) were used. All substances were formulated in physiological saline (0.9% NaCl) to final concentration allowing the mice to receive an intraperitoneal injection volume of 10 ml/kg.
In the diet induced obesity study, the mice received a high fat (60EN %) diet (D12492, Research Diets) for 13 weeks to increase their blood cholesterol level before the dosing started. The dose regimen was stretched out to 5½ weeks of 5 mg/kg LNA-antimiR™ twice weekly. Blood plasma was collected once a week during the entire dosing period. After completion of the experiment the mice were sacrificed and RNA extracted from the livers for further analysis. Serum was also collected for analysis of liver enzymes.
Immediately before sacrifice retro-orbital sinus blood was collected in EDTA-coated tubes followed by isolation of the plasma fraction. Total plasma cholesterol was analysed using ABX Pentra Cholesterol CP (Horiba Group, Horiba ABX Diagnostics) according to the manufacturer's instructions.

[3] = format: in vitro ADME; details: 96 h
Description: LNA oligonucleotide stability was tested in plasma from human or rats (it could also be mouse, monkey or dog plasma). In 45 μl plasma, 5 μl LNA oligonucleotide is added (at a final concentration of 20 μM). The LNA oligonucleotides are incubated in plasma for times ranging from 0 to 96 hours at 37° C.
At the indicated time the sample were snap frozen in liquid nitrogen. 2 μL (equals […]) LNA oligonucleotide in plasma was diluted by adding 15 μL of water and 3 μL 6× loading dye (Invitrogen). As marker a 10 bp ladder (Invitrogen, USA 10821-015) is used. To 1 μl ladder, 1 μl 6× loading and 4 μl water is added. The samples are mixed, heated to 65° C. for 10 min and loaded to a pre-run gel (16% acrylamide, 7 M UREA, 1×TBE, pre-run at 50 Watt for 1 h) and run at 50-60 Watt for […]. Subsequently, the gel is stained with 1× SyBR gold (molecular probes) in 1×TBE for 15 min. The bands were visualised using a phosphoimager from BioRad.
Stability of SEQ ID NO: 61 and SEQ ID NO: 61/miR-122a duplex were tested in mouse plasma at 37° C. over 96 hours. Shown in FIG. 12 is a SYBR-Gold stained PAGE.

miR-122 [4] = format: in vivo, mouse
Source text: Liver cryo-sections from treated animals were subjected to in situ hybridizations for detection and localization of miR-122 and SEQ ID NO: 61 (FIG. 14). A probe complementary to miR-122 could detect miR-122a. A second probe was complementary to SEQ ID NO: 61. Shown in FIG. 14 is an overlay, in green is distribution and apparent amounts of miR-122a and SEQ ID NO: 61 and blue is DAPI nuclear stain, at 10× magnification. 100× magnifications reveal the intracellular distribution of miR-122a and SEQ ID NO: 61 inside the mouse liver cells.

| Substance | ALT level (in words) [1] | alanine and aspartate aminotransferase (ALT and AST) levels compared to saline (in words) [1] | inhibition of miR-122a (in words) (miR-122a) | reduction of total plasma cholesterol compared to saline control (miR-122 [2]; hypercholesterolemic mice, after 10 days, sustained during the study) | effect on total plasma cholesterol (in words) (miR-122 [2]; normal diet mice) | stability in mouse plasma (in words) [3] | miR-122 staining pattern in liver sections (in words) (miR-122 [4]; liver cryo-sections from treated mice versus saline) | intracellular distribution of the oligonucleotide in hepatocytes (in words) (miR-122 [4]; mouse, in vivo) |
| --- | --- | --- | --- | --- | --- | --- | --- | --- |
| 5′-CcAttGTcaCaCtCC-3′ (antisense CCATTGTCACACTCC; sugars from the 5' end ldlddllddldldll, backbone and methylation of C not given here) [SEQ ID NO: 63] | possibly elevated ALT level | No changes | more efficient in inhibiting miR-122a at 1 nM | about 30% | not as pronounced |  |  |  |
| 5′-ccAttGtcAcaCtcCa-3′ (antisense CCATTGTCACACTCCA; sugars from the 5' end ddlddlddlddlddld, backbone and methylation of C not given here) [SEQ ID NO: 61] |  |  |  |  |  | completely stable over 96 hours | significantly reduced patchy staining pattern | evenly distributed in the entire cytoplasm |
